16 molecules from US20250049791A1, “Synthesis of MEK7 Inhibitors and methods of Use Thereof” (Northwestern University, priority 2023, published 2025) can be followed below.

Structures are written as SMILES. Where two headings read alike, the source gives them in different places.

The target of one test is T1, MEK6 (Homo sapiens, UniProt P52564).
T1 sequence (P52564 1-334): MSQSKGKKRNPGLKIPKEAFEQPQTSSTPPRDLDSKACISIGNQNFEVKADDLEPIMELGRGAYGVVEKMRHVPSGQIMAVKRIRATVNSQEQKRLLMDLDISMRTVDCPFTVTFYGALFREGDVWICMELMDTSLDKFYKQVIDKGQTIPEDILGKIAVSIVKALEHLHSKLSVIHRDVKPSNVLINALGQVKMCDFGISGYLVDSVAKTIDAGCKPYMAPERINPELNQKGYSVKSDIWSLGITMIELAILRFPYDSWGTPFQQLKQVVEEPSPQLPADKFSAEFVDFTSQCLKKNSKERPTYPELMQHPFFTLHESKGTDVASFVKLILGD
Briefly: Additional selectivity assay, MEK6 (FIG. 9). In kind it is binding.

The next test concerns the target T2, MEK5 (Homo sapiens, UniProt Q13163).
T2 sequence (Q13163 1-448): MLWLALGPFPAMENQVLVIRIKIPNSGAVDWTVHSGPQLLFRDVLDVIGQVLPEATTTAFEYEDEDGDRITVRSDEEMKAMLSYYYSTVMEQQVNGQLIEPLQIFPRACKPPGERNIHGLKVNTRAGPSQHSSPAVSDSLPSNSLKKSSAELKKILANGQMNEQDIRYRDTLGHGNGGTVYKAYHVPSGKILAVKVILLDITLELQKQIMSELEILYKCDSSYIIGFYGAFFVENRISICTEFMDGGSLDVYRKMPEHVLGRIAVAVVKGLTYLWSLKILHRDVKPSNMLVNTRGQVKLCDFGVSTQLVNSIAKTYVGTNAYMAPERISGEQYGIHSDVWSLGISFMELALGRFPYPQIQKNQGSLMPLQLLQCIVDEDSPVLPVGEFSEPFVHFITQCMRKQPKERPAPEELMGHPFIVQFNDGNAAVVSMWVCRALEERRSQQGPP
In words: Additional selectivity assay, MEK5 (FIG. 9). In kind it is binding.

Test [1] addresses T3, recombinant active full-length human MEK7 (Homo sapiens, UniProt O14733).
T3 construct: recombinant active full-length human MEK7 (Carna Biosciences); purchased Carna Biosciences
T3 sequence (O14733 1-419): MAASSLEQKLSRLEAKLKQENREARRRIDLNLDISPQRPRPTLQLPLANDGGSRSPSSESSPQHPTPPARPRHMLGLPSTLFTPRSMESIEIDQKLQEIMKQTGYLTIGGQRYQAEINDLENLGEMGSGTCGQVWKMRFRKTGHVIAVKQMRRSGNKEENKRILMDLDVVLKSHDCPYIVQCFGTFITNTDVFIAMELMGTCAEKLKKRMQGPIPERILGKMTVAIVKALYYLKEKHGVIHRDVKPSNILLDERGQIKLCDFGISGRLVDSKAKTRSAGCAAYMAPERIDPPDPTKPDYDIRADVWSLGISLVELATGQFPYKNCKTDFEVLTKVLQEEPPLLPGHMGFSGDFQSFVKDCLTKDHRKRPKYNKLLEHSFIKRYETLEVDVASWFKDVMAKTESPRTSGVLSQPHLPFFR
Briefly: ADP-Glo kinase activity assay, MEK7 with JNK1 substrate. In kind it is biochemical. To be noted: for in vitro activity against MAP2K7, in words: ADP-Glo assay, comparison within the series. The protocol: Procedure for a 5 μL Kinase reaction using the ADP-Glo Kinase Assay Kit from Promega. Staurosporine was used as the positive control, and DMSO (vehicle) was employed as the negative control. Activity of recombinant active full-length human MEK7 (Carna Biosciences) was measured with recombinant full-length human substrate JNK1 (MAPK8). Using a Mantis, a mixture of MEK7 and JNK1 was dispensed into a 384-well low volume white Proxiplate. For each well, 4 ng of MEK7 and 600 ng of JNK1 in kinase buffer (CST) were used, accounting for 1 μL of this mixture per well. Inhibitor was prepared in a DMSO solution (40 mM). A dose-response dilution was performed in a 384-well Echo transfer plate. Using an Echo Access, 10 nL of each solution was dispensed into the same 384-well low volume white Proxiplate as above. This mixture was allowed to incubate for 30 minutes at room temperature. Using a Mantis, 1 uL of an 8 μM ATP solution was added to each well, and the plate was allowed to incubate for another 1 hour at room temperature. Using the Mantis again, 4 μL of ADP Glo Reagent was dispensed into each well, and the plate was allowed to incubate for 45 min at room temperature. Finally, 9 μL of Kinase Detection Reagent was added manually to each well, and the plate was allowed to incubate for 45 minutes at room temperature. Luminescence was read on a Synergy Neo2 Plate Reader with filter cubes 3 and 114. Integration time was set to 0.20 seconds, gain set to 160, and read height set at 6 mm. All experiments were performed in triplicate on the plate, and at least in one separate technical duplicate was performed.
MEK4 selectivity was performed in the same manner with activated MEK4 (Carna Biosciences). Here, p-38α was employed as the kinase substrate in lieu of JNK1 due to the availability of reagents. […] To probe the ATP-competitive nature of 25, this compound was subjected to a similar assay forgoing the 30 minute incubation time described above (STAR Protocols 2021, 2, 100717). The results are tabulated below in compound characterization. Potency determined by duplicate of triplicates corresponded to a IC50 value, which is in line with the ratio difference observed among other covalent inhibitors (for examples, see Cell Chem. Biol. 2020, 27, 1285).

The target of a further test is T4, MEK3 (Homo sapiens, UniProt P46734).
T4 sequence (P46734 1-347): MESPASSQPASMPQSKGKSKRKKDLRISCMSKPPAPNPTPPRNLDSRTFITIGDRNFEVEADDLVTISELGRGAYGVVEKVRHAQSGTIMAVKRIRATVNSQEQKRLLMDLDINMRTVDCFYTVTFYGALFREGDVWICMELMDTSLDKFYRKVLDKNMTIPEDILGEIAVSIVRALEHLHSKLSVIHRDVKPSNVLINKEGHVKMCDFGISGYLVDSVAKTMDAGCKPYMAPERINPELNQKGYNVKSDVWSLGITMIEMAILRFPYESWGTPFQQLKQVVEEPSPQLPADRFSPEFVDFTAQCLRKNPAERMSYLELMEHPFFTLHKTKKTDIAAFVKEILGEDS
In words: Additional selectivity assay, MEK3 (FIG. 9). In kind it is binding.

Where [2] appears, read: MEK7 IC50, first experiment (IC50±SEM, n=3), 30 min preincubation, first value in brackets.
The mark [3] stands for this setting: MEK7 IC50, second experiment (IC50±SEM, n=3), 30 min preincubation, second value in brackets.
Where [4] appears, read: 30 min preincubation, overall value of two experiments, read-out: MEK7 IC50.
Setting [5] is: 30 min preincubation, first value in brackets.

Take `C=CC(=O)Nc1cccc(Oc2cc(NC)ncn2)c1` [Compound 9, N-(3-((6-(methylamino)pyrimidin-4-yl)oxy)phenyl) acrylamide]: at MEK6, the “activity/binding at MEK6” value was “inactive”. In addition, the “activity/binding at MEK5” value at MEK5 was “inactive”. In addition, the “in vitro activity against MAP2K7, in words” value (shortened to “in vitro activity”) in test [1] is “less active than compound 8”. Moreover, the concentration for half-maximal inhibition (IC50) in test [1] (setting [2]) was 230 ± 190 nM; in test [1] (setting [3]) it was 610 ± 400 nM. Besides, at MEK3, the “activity/binding at MEK3” value is “inactive”.
Turning to `O=C(CCl)Nc1cccc(Oc2cc(NCCc3ccc(Cl)cc3)ncn2)c1` [Compound 19, 2-chloro-N-(3-((6-((4-chlorophenethyl)amino)pyrimidin-4-yl)oxy)phenyl)acetamide], the IC50 in test [1] (setting [4]) amounted to 66 nM; in test [1] (setting [2]), 53 nM; in test [1] (setting [3]) it was 78 ± 91 nM. For the same molecule, the “in vitro activity” value in test [1] was “greatest potency”.
Consider `O=C(CCl)Nc1cccc(Oc2cc(NCc3ccc(F)cc3F)ncn2)c1` [Compound 27, 2-chloro-N-(3-((6-((2,4-difluorobenzyl)amino)pyrimidin-4-yl)oxy)phenyl)acetamide], for which the IC50 in test [1] (setting [4]) was 360 nM; in test [1] (setting [2]), 140 nM; in test [1] (setting [3]), 580 ± 200 nM.
As to `CNc1cc(Oc2cccc(NC(=O)COC)c2)ncn1` [Compound 13, 2-methoxy-N-(3-((6-(methylamino)pyrimidin-4-yl)oxy)phenyl)acetamide], the “in vitro activity” value in test [1] was “attenuated activity”.
Consider `O=C(CCl)Nc1cccc(Oc2cc(NCc3cc(F)cc(F)c3)ncn2)c1` [Compound 26, 2-chloro-N-(3-((6-((3,5-difluorobenzyl)amino)pyrimidin-4-yl)oxy)phenyl)acetamide], for which the results for the 50% inhibitory concentration (IC50) in test [1] (setting [4]) and in test [1] (setting [2]) were 74 nM and 110 nM, respectively.
Regarding `CC=CC(=O)Nc1cccc(Oc2cc(NC)ncn2)c1` (mixture of isomers) [Compound 10, (E/Z)—N-(3-((6-(methylamino)pyrimidin-4-yl)oxy)phenyl) but-2-enamide], the IC50 in test [1] (setting [4]) was greater than 80000 nM. Moreover, the “in vitro activity” value in test [1] is reported as “less potent”.
Regarding `O=C(CCl)Nc1cccc(Oc2cc(NCc3c(F)ccc(F)c3F)ncn2)c1` [Compound 28, 2-chloro-N-(3-((6-((2,3,6-trifluorobenzyl)amino)pyrimidin-4-yl)oxy)phenyl)acetamide], the IC50 in test [1] (setting [4]) was found to be 110 nM; in test [1] (setting [2]), 880 ± 29 nM; in test [1] (setting [3]) it was 140 ± 44 nM.
On the same counts, the results for `O=C(CCl)Nc1cccc(Oc2cc(NCc3ccc(F)c(C(F)(F)F)c3)ncn2)c1` [Compound 31, 2-chloro-N-(3-((6-((4-fluoro-3-(trifluoromethyl)benzyl)amino)pyrimidin-4-yl)oxy)phenyl)acetamide] are 3000 nM, 4200 ± 2500 nM and 1800 ± 1200 nM.
For the molecule `O=C(CCl)Nc1cccc(Oc2cc(NCc3cc(C(F)(F)F)cc(C(F)(F)F)c3)ncn2)c1` [Compound 33, N-(3-((6-((3,5-bis(trifluoromethyl)benzyl)amino)pyrimidin-4-yl)oxy)phenyl)-2-chloroacetamide], the 50% inhibitory concentration (IC50) in test [1] (setting [2]) is 4000 ± 4400 nM; in test [1] (setting [3]), 8500 ± 9800 nM.
With `COc1ccc(CNc2cc(Oc3cccc(NC(=O)CCl)c3)ncn2)cc1OC` [Compound 35, 2-chloro-N-(3-((6-((3,4-dimethoxybenzyl)amino)pyrimidin-4-yl)oxy)phenyl)acetamide], the IC50 in test [1] (setting [4]) amounted to 260 nM; in test [1] (setting [2]), 390 ± 730 nM; in test [1] (setting [3]), 120 nM.
As to `CNc1cc(Oc2ccc(NC(=O)CCl)cc2)ncn1` [Compound 6, 2-chloro-N-(4-((6-(methylamino)pyrimidin-4-yl)oxy)phenyl)acetamide], the 50% inhibitory concentration (IC50) in test [1] (setting [4]) was 1800 nM; in test [1] (setting [2]), 1500 ± 210 nM; in test [1] (setting [3]) it was 2100 ± 1100 nM. The “in vitro activity” value in test [1] is “less active than compound 8”.
For the molecule `CNc1cc(Oc2cccc(NC(=O)CF)c2)ncn1` [Compound 12, 2-fluoro-N-(3-((6-(methylamino)pyrimidin-4-yl)oxy)phenyl)acetamide], the half-maximal inhibitory concentration (IC50) in test [1] (setting [5]) turned out to be 7700 ± 20000 nM; in test [1] (setting [4]), 7800 nM; in test [1] (read-out: MEK7 IC50, second experiment (IC50±SEM, n=3), 30 min preincubation, second value in brackets), 7800 ± 5000 nM. Moreover, the “in vitro activity” value in test [1] is on record as “attenuated activity”.
As for `COc1ccccc1CNc1cc(Oc2cccc(NC(=O)CCl)c2)ncn1` [Compound 32, 2-chloro-N-(3-((6-((2-methoxybenzyl)amino)pyrimidin-4-yl)oxy)phenyl)acetamide], the IC50 in test [1] (setting [4]) came out at 800 nM; in test [1] (setting [2]), 590 ± 150 nM; in test [1] (setting [3]), 1000 ± 220 nM. Further, in test [1], the “in vitro activity” value is reported as “towards the micromolar range”.
For `CN(Cc1ccccc1)c1cc(Oc2cccc(NC(=O)CCl)c2)ncn1` [Compound 24, N-(3-((6-(benzyl(methyl)amino)pyrimidin-4-yl)oxy)phenyl)-2-chloroacetamide], the half-inhibitory concentration (IC50) amounted to 110 nM in test [1] (setting [4]), 140 ± 87 nM in test [1] (setting [2]) and 87 ± 42 nM in test [1] (setting [3]). In addition, the “in vitro activity” value in test [1] is “ten-fold attenuation”.
Turning to `O=C(CCl)Nc1cccc(Oc2cc(N3CCOCC3)ncn2)c1` [Compound 14, 2-chloro-N-(3-((6-morpholinopyrimidin-4-yl)oxy)phenyl)acetamide], the MEK7 IC50, first experiment (IC50±SEM, n=3) in test [1] (setting [5]) came to 1300 ± 3400 nM.
Turning to `O=C(CCl)Nc1cccc(Oc2cc(NC3CCCC3)ncn2)c1` [Compound 16, 2-chloro-N-(3-((6-(cyclopentylamino)pyrimidin-4-yl)oxy)phenyl)acetamide], the IC50 in test [1] (setting [4]) came out at 270 nM; in test [1] (setting [2]), 350 ± 150 nM; in test [1] (setting [3]), 190 ± 190 nM.
